pIC50: −log10 of the molar value.
Columns and labels:
BRD4 BD1 = molecular target: T1, BRD4 BD1 (Homo sapiens, UniProt O60885); experiment: NanoBRET bromodomain assay, NanoLuc-BRD4-BD1 in HEK293 cells; type: binding
T1 construct: HEK293 cells were transfected using NanoLuc-BRD4-BD1 or NanoLuc-BRD4-BD2 fusion vectors
Procedure: Exemplary compounds of the disclosure are active against BRD4 BD2 and selective over BRD4 BD1. BRD4 is a representative example of the BET family, as the binding sites of all BET family members are structurally similar. […] IC50s and fold selectivity's are determined as described below and are represented in Table 1.
(§1) Plates were then incubated at 37° C.+5% CO2 incubator for 2 hours.
(§2) Fold Selectivity Calculated (IC50 BD1/IC50 BD2).

BRD4 BD2 = molecular target: T2, BRD4 BD2 (Homo sapiens, UniProt O60885); experiment: NanoBRET bromodomain assay, NanoLuc-BRD4-BD2 in HEK293 cells; type: binding; conditions: for Fold Selectivity BRD4 BD1/BD2: IC50 BD1/IC50 BD2, qualitative if an IC50 is at the upper limit
T2 construct: HEK293 cells were transfected using NanoLuc-BRD4-BD1 or NanoLuc-BRD4-BD2 fusion vectors
Procedure: as §1, §2

Row | Compound | pIC50 (BRD4 BD1) | pIC50 (BRD4 BD2) | Fold Selectivity BRD4 BD1/BD2 (BRD4 BD2)
1 | Cn1cc(-c2ccccc2)c(-c2cn(C)c(=O)c3[nH]c(-c4cnn(C(F)(F)F)c4)cc23)cc1=O [Example 34, 6-methyl-4-(1-methyl-2-oxo-5-phenyl-1,2-dihydropyridin-4-yl)-2-(1-(trifluoromethyl)-1H-pyrazol-4-yl)-1,6-dihydro-7H-pyrrolo[2,3-c]pyridin-7-one] | < 6.00 | > 8.00 | xxxx (Fold >1000)
2 | CC(C)n1cc(-c2[nH]c3c(=O)n(C)cc(-c4cc(=O)n(C)cc4-c4ccccc4)c3c2F)cn1 [Example 65, 4-[3-fluoro-2-(1-isopropylpyrazol-4-yl)-6-methyl-7-oxo-1H-pyrrolo[2,3-c]pyridin-4-yl]-1-methyl-5-phenylpyridin-2-one] | < 6.00 | 7.30 to 8.00 | xxx (Fold >200 and ≤1000)
3 | Cc1c(-c2cnn(C(F)(F)F)c2)[nH]c2c(=O)n(C)cc(-c3cc(=O)n(C)cc3-c3ccccc3)c12 [Example 20, 3,6-dimethyl-4-(1-methyl-2-oxo-5-phenyl-1,2-dihydropyridin-4-yl)-2-(1-(trifluoromethyl)-1H-pyrazol-4-yl)-1,6-dihydro-7H-pyrrolo[2,3-c]pyridin-7-one] | < 6.00 | 7.30 to 8.00 | xxx (Fold >200 and ≤1000)
4 | Cc1cccc(C)c1Oc1cn(C)c(=O)cc1-c1cn(C)c(=O)c2[nH]c(-c3cnn(CC(F)(F)F)c3C)cc12 [Example 16, 4-(5-(2,6-dimethylphenoxy)-1-methyl-2-oxo-1,2-dihydropyridin-4-yl)-6-methyl-2-(5-methyl-1-(2,2,2-trifluoroethyl)-1H-pyrazol-4-yl)-1,6-dihydro-7H-pyrrolo[2,3-c]pyridin-7-one] | < 6.00 | > 8.00 | xx (Fold >50 and ≤200)
5 | Cc1cccc(-c2cc3c(-c4cc(=O)n(C)cc4Oc4c(C)cccc4C)cn(C)c(=O)c3[nH]2)c1F [Example 99] | < 6.00 | 7.30 to 8.00 | xxx (Fold >200 and ≤1000)
6 | COCc1cccc(-c2cc3c(-c4cc(=O)n(C)cc4-c4ccccc4)cn(C)c(=O)c3[nH]2)c1 [Example 85] | < 6.00 | > 8.00 | xxxx (Fold >1000)
7 | Cc1cccc(C)c1Oc1cn(C2CC2)c(=O)cc1-c1cn(C)c(=O)c2[nH]c(-c3cccc(F)c3F)cc12 [Example 87] | < 6.00 | < 6.00 | — (Fold ≥0 and ≤2)
8 | CN(C)CCOc1cccc(-c2cn(C)c(=O)cc2-c2cn(C)c(=O)c3[nH]c(-c4cnn(C(F)(F)F)c4)cc23)c1 [Example 3, 4-(5-(3-(2-(dimethylamino)ethoxy)phenyl)-1-methyl-2-oxo-1,2-dihydropyridin-4-yl)-6-methyl-2-(1-(trifluoromethyl)-1H-pyrazol-4-yl)-1,6-dihydro-7H-pyrrolo[2,3-c]pyridin-7-one] | < 6.00 | 6.70 to 7.30 | xx (Fold >50 and ≤200)
9 | Cn1cc(-c2cc(=O)n(CCOC(F)F)cc2-c2ccccc2)c2cc(-c3cnn(C(F)(F)F)c3)[nH]c2c1=O [Example 22, 4-(1-(2-(difluoromethoxy)ethyl)-2-oxo-5-phenyl-1,2-dihydropyridin-4-yl)-6-methyl-2-(1-(trifluoromethyl)-1H-pyrazol-4-yl)-1,6-dihydro-7H-pyrrolo[2,3-c]pyridin-7-one] | < 6.00 | > 8.00 | xxxx (Fold >1000)
10 | Cn1cc(-c2ccccc2)c(-c2cn(C)c(=O)c3[nH]c(-c4cnn(C(F)(F)F)c4)c(Cl)c23)cc1=O [Example 10, 3-chloro-6-methyl-4-(1-methyl-2-oxo-5-phenyl-1,2-dihydropyridin-4-yl)-2-(1-(trifluoromethyl)-1H-pyrazol-4-yl)-1,6-dihydro-7H-pyrrolo[2,3-c]pyridin-7-one] | < 6.00 | 7.30 to 8.00 | xxx (Fold >200 and ≤1000)
11 | Cn1cc(-c2ccccc2)c(-c2cn(C)c(=O)c3[nH]c(-c4ccc(F)cc4F)cc23)cc1=O [Example 43, 2-(2,4-difluorophenyl)-6-methyl-4-(1-methyl-2-oxo-5-phenyl-1,2-dihydropyridin-4-yl)-1,6-dihydro-7H-pyrrolo[2,3-c]pyridin-7-one] | < 6.00 | > 8.00 | xxxx (Fold >1000)
12 | Cc1cc(-c2cc3c(-c4cc(=O)n(C)cc4-c4ccccc4Cl)cn(C)c(=O)c3[nH]2)cc(C)n1.Cl [Example 32, 4-(5-(2-chlorophenyl)-1-methyl-2-oxo-1,2-dihydropyridin-4-yl)-2-(2,6-dimethylpyridin-4-yl)-6-methyl-1,6-dihydro-7H-pyrrolo[2,3-c]pyridin-7-one hydrogen chloride] | < 6.00 | 7.30 to 8.00 | xxx (Fold >200 and ≤1000)
13 | Cn1cc(-c2ccc(COC(F)(F)F)cc2)c(-c2cn(C)c(=O)c3[nH]c(-c4cnn(C(F)(F)F)c4)cc23)cc1=O [Example 18, 6-methyl-4-(1-methyl-2-oxo-5-(4-((trifluoromethoxy)methyl)phenyl)-1,2-dihydropyridin-4-yl)-2-(1-(trifluoromethyl)-1H-pyrazol-4-yl)-1,6-dihydro-7H-pyrrolo[2,3-c]pyridin-7-one] | < 6.00 | > 8.00 | xxxx (Fold >1000)
14 | CCCn1cc(-c2cc3c(-c4cc(=O)n(C)cc4Oc4c(C)cccc4C)cn(C)c(=O)c3[nH]2)cn1 [Example 41, 4-(5-(2,6-dimethylphenoxy)-1-methyl-2-oxo-1,2-dihydropyridin-4-yl)-6-methyl-2-(1-propyl-1H-pyrazol-4-yl)-1,6-dihydro-7H-pyrrolo[2,3-c]pyridin-7-one] | < 6.00 | > 8.00 | xxxx (Fold >1000)
15 | Cc1cccc(C)c1Oc1cn(C)c(=O)cc1-c1cn(C)c(=O)c2[nH]c(-c3cccc(C(F)F)c3F)cc12 [Example 95] | < 6.00 | 6.70 to 7.30 | xx (Fold >50 and ≤200)

Next, values leading:

Row | pIC50 (BRD4 BD1) | pIC50 (BRD4 BD2) | Fold Selectivity BRD4 BD1/BD2 (BRD4 BD2) | Compound
16 | < 6.00 | > 8.00 | xxxx (Fold >1000) | Cc1cccc(C)c1Oc1cn(C2CC2)c(=O)cc1-c1cn(C)c(=O)c2[nH]c(-c3ccc(F)cc3F)cc12 [Example 39, 4-(1-cyclopropyl-5-(2,6-dimethylphenoxy)-2-oxo-1,2-dihydropyridin-4-yl)-2-(2,4-difluorophenyl)-6-methyl-1,6-dihydro-7H-pyrrolo[2,3-c]pyridin-7-one]
17 | < 6.00 | 6.70 to 7.30 | xx (Fold >50 and ≤200) | CC(C)c1cc(-c2cc3c(-c4cc(=O)n(C)cc4-c4ccccc4)cn(C)c(=O)c3[nH]2)ccc1F [Example 71]
18 | < 6.00 | 6.00 to 6.70 | x (Fold >2 and ≤50) | Cn1cc(-c2cccnc2)c(-c2cn(C)c(=O)c3[nH]c(-c4cnn(C(F)(F)F)c4)cc23)cc1=O [Example 66, 6-methyl-4-(1-methyl-6-oxo-1,6-dihydro-[3,3′-bipyridin]-4-yl)-2-(1-(trifluoromethyl)-1H-pyrazol-4-yl)-1,6-dihydro-7H-pyrrolo[2,3-c]pyridin-7-one]
19 | < 6.00 | 7.30 to 8.00 | xxx (Fold >200 and ≤1000) | Cc1cccc(C)c1Oc1cn(C2CC2)c(=O)cc1-c1cn(C)c(=O)c2[nH]c(-c3cn(C)nc3C)cc12 [Example 94]
20 | 6.00 to 6.30 | 7.30 to 8.00 | xx (Fold >50 and ≤200) | Cc1cccc(C)c1Oc1cn(C)c(=O)cc1-c1cn(C)c(=O)c2[nH]c(-c3cn(CC(F)(F)F)nc3C)cc12 [Example 15, 4-(5-(2,6-dimethylphenoxy)-1-methyl-2-oxo-1,2-dihydropyridin-4-yl)-6-methyl-2-(3-methyl-1-(2,2,2-trifluoroethyl)-1H-pyrazol-4-yl)-1,6-dihydro-7H-pyrrolo[2,3-c]pyridin-7-one]
21 | < 6.00 | 7.30 to 8.00 | xxx (Fold >200 and ≤1000) | Cn1cc(-c2cccc(OCCO)c2)c(-c2cn(C)c(=O)c3[nH]c(-c4ccc(F)cc4F)cc23)cc1=O [Example 76]
22 | < 6.00 | > 8.00 | xxxx (Fold >1000) | Cn1cc(-c2cccc(C(C)(C)O)c2)c(-c2cn(C)c(=O)c3[nH]c(-c4ccc(F)cc4F)cc23)cc1=O [Example 51, 2-(2,4-difluorophenyl)-4-(5-(3-(2-hydroxypropan-2-yl)phenyl)-1-methyl-2-oxo-1,2-dihydropyridin-4-yl)-6-methyl-1,6-dihydro-7H-pyrrolo[2,3-c]pyridin-7-one]
23 | < 6.00 | > 8.00 | xxxx (Fold >1000) | Cn1cc(-c2ccccc2)c(-c2cn(C)c(=O)c3[nH]c(-c4ccc(C5COC5)cc4)cc23)cc1=O [Example 44, 6-methyl-4-(1-methyl-2-oxo-5-phenyl-1,2-dihydropyridin-4-yl)-2-(4-(oxetan-3-yl)phenyl)-1,6-dihydro-7H-pyrrolo[2,3-c]pyridin-7-one]
24 | < 6.00 | > 8.00 | xxxx (Fold >1000) | CSCCn1cc(-c2ccccc2)c(-c2cn(C)c(=O)c3[nH]c(-c4cnn(C(F)(F)F)c4)cc23)cc1=O [Example 23, 6-methyl-4-(1-(2-(methylthio)ethyl)-2-oxo-5-phenyl-1,2-dihydropyridin-4-yl)-2-(1-(trifluoromethyl)-1H-pyrazol-4-yl)-1,6-dihydro-7H-pyrrolo[2,3-c]pyridin-7-one]

Reference: patent US20260217701A1, “SELECTIVE BET INHIBITORS AND USES THEREOF” (Tay Therapeutics Limited, priority 2022, published 2026)
